Test results reported in US20220362182A1, “METHODS FOR REVERSING HEPATIC STEATOSIS” (BRIGHTSEED, INC., priority 2020, published 2022).
Entries after “also recorded” stand apart in the source; their conditions may differ.

Experiments:
HNF4α [1] = target: T1, HNF4α (Homo sapiens, UniProt P41235); test: T6PNE insulin promoter assay (human insulin promoter-GFP transgene); type: cell-based; design: endogenous in cells; host or cells: T6PNE cells; conditions: T6PNE cells, GFP-positive cells relative to DMSO
T1 sequence (P41235 1-474): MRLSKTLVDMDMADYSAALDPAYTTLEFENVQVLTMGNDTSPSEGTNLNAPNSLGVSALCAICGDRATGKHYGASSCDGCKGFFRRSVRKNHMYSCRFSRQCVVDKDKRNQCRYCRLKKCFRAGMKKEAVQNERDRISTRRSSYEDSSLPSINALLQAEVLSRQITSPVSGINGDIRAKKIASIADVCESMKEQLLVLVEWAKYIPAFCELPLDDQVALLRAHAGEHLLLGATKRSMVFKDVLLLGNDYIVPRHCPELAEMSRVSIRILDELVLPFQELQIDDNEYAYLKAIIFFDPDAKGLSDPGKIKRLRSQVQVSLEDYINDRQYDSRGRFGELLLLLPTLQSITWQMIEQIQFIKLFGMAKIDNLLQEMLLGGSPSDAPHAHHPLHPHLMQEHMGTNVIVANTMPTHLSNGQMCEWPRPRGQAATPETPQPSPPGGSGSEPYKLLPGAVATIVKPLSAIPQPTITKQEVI
Experimental: The T6PNE insulin promoter assay has been described previously and was performed here with slight modifications as follows: T6PNE cells were seeded at 200 cells per well in 384-well tissue culture plates (Greiner Bio-One) in the presence of 0.5 μM tamoxifen. Compounds described herein in DMSO were dispensed with an Echo 555 Acoustic Liquid Handler (Beckman Coulter). Three days after compound addition, cells were fixed in 4% paraformaldehyde (USBio) for 15 min and stained with DAPI (0.167 μg/ml, Invitrogen). Blue (DAPI) and green (GFP) channels were imaged using a Celigo imaging cytometer (Nexcelom Bioscience). The number of GFPpositive cells was normalized to the DAPI-positive cell number and fold change calculated relative to the DMSO control.
T6PNE cells were maintained in RPMI (5.5mM glucose, Corning) supplemented with 10% fetal bovine serum (FBS, Sigma-Aldrich) and 1% penicillin-streptomycin (pen-strep, Gibco). Cells were maintained in 5% CO2 at 37° C. For the insulin promoter assay, 0.5 μM tamoxifen (Sigma-Aldrich) was added to T6PNE cell culture media. HepG2 or HeLa cells were cultured in DMEM (high glucose, Corning) supplemented with 10% FBS and 1% pen-strep and maintained at 5% CO2, 37° C.

[2] = clinical trials for type 2 diabetes; cited from earlier work
human insulin promoter = test: modified insulin promoter assay repressed with palmitate; type: cell-based; conditions: insulin promoter activity repressed with palmitate
Experimental: Alverine and benfluorex were ascertained in a modification of the insulin promoter assay in which the level of insulin promoter activity was repressed with palmitate. […] Cells were treated with 0.25 mM palmitate for 2 days in the presence and absence of NCT or NFT (10 μM).

T6PNE cells = test: fat clearance assay in palmitate-treated T6PNE cells (Oil Red O, Nile Red, triglyceride); type: cell-based, human; conditions: for fat clearance (stored fat by Oil Red O and Nile Red staining): 0.25 mM palmitate for 2 days; for effect on fat clearance induced by NCT: palmitate, inhibitor or siRNA plus NCT
Experimental: Oil red O and Nile Red staining were used to measure lipid accumulation. Oil Red O staining was done as known in the art. Briefly, fixed cells were incubated with Oil Red O solution (Poly Scientific) for 3 h, followed by photomicrography (Olympus, IX71). For Nile Red staining, dye (1: 500 in PBS from 1 mg/ml in ethanol stock, Sigma) was added for 30 mins and DAPI added for 10 mins at room temperature. Quantification of Nile Red staining was done with a Celigo imaging cytometer (Nexcelom Bioscience). More than 4000 cells were analyzed for each quantification. The number of Nile Redpositive cells was normalized to the DAPI-positive cell number for each well and fold change was calculated relative to a DMSO control well.
Palmitate (150 mM) (Sigma-Aldrich) was prepared in 50% ethanol and precomplexed with 15% fatty acid-free BSA (Research Organics, Cleveland, Ohio, USA) in a 37 C water shaker. BSA-precomplexed palmitate was used as a 12 mM stock solution for all assays with a final concentration of 0.25 mM palmitate in cell culture medium.
siRNAs were purchased from Ambion. For transfections, 24 μL of each siRNA (1 μM stock) was mixed with 90 μL of a 1:100 dilution of Lipofectamine RNAi MAX (Invitrogen, Waltham, Mass., USA) in Opti-MEM. Transfection was done in 24 well plates (Thermo Fisher Scientific, Waltham, Mass., USA), by incubation with cells for 30 min. at room temperature. One day after transfection, cells were transferred to 96 well plates (2000 cells per well) and incubated at 37° C. for an additional day. Forty-eight hours after transfection, either palmitate-BSA complex or BSA control plus or minus compounds was added for 2 days. For validation of siRNAs, transfected cells were harvested for RNA purification and QPCR for each gene 2 days after transfection.
The bicinchoninic acid (BCA) protein assay kit assay (Thermo scientific) was used to measure protein amount for DART, Western blotting and TG assays. Absorbance at 550 nm was determined using a plate reader.

p62 = p62 Western blot in T6PNE cells; type: cell-based, human; conditions: NCT 10 μM, RA 10 μM, fenretinide
Experimental: (§1) Whole-cell extracts were prepared by incubation in RIPA buffer (Invitrogen) containing protease inhibitors (Calbiochem, San Diego, Calif.). Protein ([…]) was separated on 12% or 16% Tri-Glycine gels (Invitrogen) and transferred to Immobilon P membrane (0.2 μm pore, Millipore). After 1 h in phosphate-buffered saline-Tween (PBST) with 3% milk, membrane was incubated with antibodies to HNF4α (mouse, Novus, 1:1000), LC3B (rabbit, Novus, 1:500), p62 (SQSTM1, mouse, Santa Cruz, 1:1000) or β-actin (mouse, Santa Cruz, 1:2000), followed by secondary antibody conjugated to horseradish peroxidase (1:5000, Jackson Immune).

dihydroceramides = test: lipidomic analysis of ceramides and dihydroceramides in T6PNE cells; type: cell-based, human
Experimental: Ceramides and dihydroceramides were measured in the UCSD Lipidomics Core Facility as previously described (Quehenberger et al.). Briefly, samples were extracted using the butanol: methanol (BUME) method. The lipid layer was collected and run on a Thermo-Vanquish UPLC (Thermo Scientific) with a Cortecs T3 (C18), 2.1 mm×150 mm; 1.8 uT3 column and a binary solvent system. Mass spectrometry employed a Thermo Q Exactive instrument with MS/MS data dependent acquisition scan mode and LipidSearch software (Thermo Fisher Scientific).

CYP26A1 mRNA = CYP26A1 mRNA in T6PNE cells; type: cell-based, human; conditions: 2 days, 0.25 mM palmitate, NCT 10 μM, 4-OH-RA 20 μM
Experimental: Quantitative PCR (Q-PCR) from in vitro cell culture experiments used total RNA purified using RNeasy Kits (Qiagen). For liver tissue samples, total RNA was isolated using Trizol (Invitrogen) and prepared for RNAseq (mouse liver DMSO and NCT, N=3). cDNA was amplified using 3 μg of total RNA using qScript cDNA SuperMix (Quanta BioSciences, Beverly, Mass., USA). QPCR analysis was performed using SYBR® Select Master Mix (Applied Biosystems) and ABI 7900HT (Applied Biosystems, Thermo Fisher Scientific). The Ct values of mRNA expression were then normalized to the 18 s rRNA values and are expressed as fold change over samples from mice fed normal chow for in vivo experiments or DMSO controls for cell culture experiments.

HNF4α [3] = target: T1, HNF4α; test: DARTS assay (HNF4α protease sensitivity) in HepG2 cells; type: binding; design: Total cell protein was extracted; endogenous in cells; host or cells: HepG2 cells; conditions: 40 or 80 μM for 16 h, subtilisin
Experimental: DARTS assays were conducted as described in the art. HepG2 cells were treated with DMSO, BI6015, NCT, NFT at a concentration of 40 or 80 μM for 16 hr. Total cell protein was extracted and measured by BCA protein assay (Thermo Scientific). Each sample was split into two aliquots for proteolysis without (−) or with (+) Subtilisin (Sigma-Aldrich). Forty […] of cell lysate was incubated with or without protease (40 ng/ml subtilisin) for 35 min at room temperature.
as §1

HNF4α [4] = conditions: previous finding, cited from earlier work

## CC(Cc1cccc(C(F)(F)F)c1)NCCOC(=O)c1ccccc1 (centres unmarked) [benfluorex, reference compound]
HNF4α [1]
  insulin promoter activity / HNF4α activation: relatively weak activators; also recorded: fairly weak HNF4α activators
[2]
  HbA1c: effective at reducing HbA1c
Human insulin promoter
  fatty acid-mediated repression of the human insulin promoter: reversed the fatty acid-mediated repression of the human insulin promoter

## CCCCCCCCc1ccc(CCC(N)(CO)CO)cc1 [FTY720]
T6PNE cells
  fat clearance (stored fat by Oil Red O and Nile Red staining): neither S1P nor FTY720 had any effect on fat clearance

## CCCCCCCCCCCCC/C=C/[C@@H](O)[C@@H](N)COP(=O)(O)O [S1P, sphingosine-1-phosphate]
T6PNE cells
  fat clearance (stored fat by Oil Red O and Nile Red staining): did not have any effect on fat storage; also recorded: neither S1P nor FTY720 had any effect on fat clearance

## CC1=C(/C=C/C(C)=C/C=C/C(C)=C/C(=O)Nc2ccc(O)cc2)C(C)(C)CCC1 [Fenretinide, fenretinide, reference compound]
T6PNE cells
  fat clearance (stored fat by Oil Red O and Nile Red staining): strongly positive
T6PNE cells; listed as fenretinide
  fat clearance (stored fat by Oil Red O and Nile Red staining): induced fat clearance from T6PNE cells
p62
  p62 protein expression normalized to actin: had a statistically significant effect
dihydroceramides; 2 days after treatment
  dihydroceramide production: induced multiple identical dihydroceramides
dihydroceramides; NCT+RA 10 μM, fenretinide 5 μM
  ceramide (Cer)/dihydroceramide (DH-Cer) ratio: substantial decrease

## Nn1nnc2ccccc21 [ABT]
T6PNE cells
  effect on fat clearance induced by NCT: inhibited fat clearance by NCT

## CCCCCCCCCCCCCC1=C([C@H](O)[C@@H](CO)NC(=O)CCCCCCC)C1 [GT-11, N-[(1R,2S)-2-hydroxy-1-hydroxymethyl-2-(2-tridecyl-1-cyclopropenyl)ethyl] octanamide]
T6PNE cells
  fat clearance (stored fat by Oil Red O and Nile Red staining): strongly positive; also recorded: increase fat clearance

## CC1=C(/C=C/C(C)=C/C=C/C(C)=C/C(=O)O)C(C)(C)CCC1O (centres unmarked) [4-OH RA, reference compound]
T6PNE cells
  fat clearance (stored fat by Oil Red O and Nile Red staining): induced fat clearance from T6PNE cells
CYP26A1 mRNA
  CYP26A1 mRNA level: induced an increase in CYP26A1 mRNA

## O=C(Oc1nsnc1N1CCCCC1)N1CCCCC1 [Lalistat 2]
T6PNE cells
  effect on fat clearance induced by NCT: eliminated the ability of N-trans-caffeoyltyramine to effect fat clearance; also recorded: inhibited the ability of NCT to promote fat clearance
T6PNE cells; listed as Lalistat2
  effect on fat clearance induced by NCT: inhibits the effect of NCT on fat clearance

## CCN(CCCc1ccccc1)CCCc1ccccc1 [alverine, reference compound]
HNF4α [1]
  insulin promoter activity / HNF4α activation: relatively weak activators; also recorded: fairly weak HNF4α activators
Human insulin promoter
  fatty acid-mediated repression of the human insulin promoter: reversed the fatty acid-mediated repression of the human insulin promoter

## CCC(CC)C(c1ccc(Nc2nc3ccccc3s2)cc1)n1cncn1 (centres unmarked) [talarazole]
T6PNE cells
  effect on fat clearance induced by NCT: inhibited fat clearance by NCT

## dihydroceramide
T6PNE cells
  fat clearance (stored fat by Oil Red O and Nile Red staining): active at inducing fat clearance

## Cc1ccc([N+](=O)[O-])cc1S(=O)(=O)n1c(C)nc2ccccc21 [BI6015]
HNF4α [3]
  HNF4α proteolytic sensitivity / conformational change: induced a conformational change in HNF4α
HNF4α [4]; in vitro and in vivo
  hepatic steatosis: caused hepatic steatosis in vitro and in vivo
HNF4α [4]; in vivo
  HNF4α expression in the liver: caused loss of HNF4a expression in the liver; also recorded: caused loss of HNF4α expression in the liver
